Test results published in PubChem BioAssay AID1963842 (Molecular Pharmacology Branch, DTP, NCI, 2024).
Where “and” joins values, the source holds several entries; their conditions need not be identical. Equal values may be shown once.

System: 677734-321-R-J1-PDC complex spheroid viability
Assay: Anticancer human tumor 677734-321-R-J1-PDC patient-derived soft tissue sarcoma cell line growth inhibition [POLQ]
Conditions: for viability, T/C: stronger effect = lower value; for IC50: curve of compound
Protocol: Multicellular complex tumor spheroid response to Polymerase (POL) inhibitors (novobiocin, ART-558, RP6685) in combination with a variety of drugs and investigational agents in selected tumor cell lines
The POL inhibitors (novobiocin, ART-558, and RP6685) were evaluated both individually and in combination with standard of care and investigational anticancer small molecules within a complex spheroid model of solid tumors. . Complex spheroids include a stromal component modeled by human endothelial cells (HUVEC) and fibroblasts modeled by human mesenchymal stem cells (MSCs). The concentration ranges selected for each drug and investigational agent were based upon clinically achievable concentrations if the clinical Cmax of the agent was known.
Compounds. The drugs and investigational agents: novobiocin (NSC847541), ART-558 (NSC835418), RP-6685 (NSC848927), peposertib (NSC802822), ceralasertib (NSC780249), elimusertib (NSC800525), camonsertib (NSC841442), AZD-1390 (NSC803789), olaparib (NSC753686), talazoparib (NSC767125), rucaparib (NSC756644), sotorasib (NSC818433), MRTX-1133 (NSC836407), SN-38 (NSC673596), topotecan (NSC609699), epotoside (NSC141540), doxorubicin (NSC123127), gemcitabine (NSC613327), 5-fluorouracil (NSC19893), paclitaxel (NSC125973), vemurafenib (NSC761431), MSA-2 (NSC828583), SN-011 (NSC837082), adavosertib (NSC754352), prexasertib (NSC758257), carboplatin (NSC241240) and oxaliplatin (NSC266046), were obtained from the National Cancer Institute (NCI) Developmental Therapeutics Program Chemical Repository (21). The FDA-approved anticancer drug set is available from the Developmental Therapeutics Program at https://dtp.cancer.gov/organization/dscb/obtaining/. […] The stock solutions were prepared in dimethyl sulfoxide (DMSO, Sigma-Aldrich, St. Louis, MO, cat. D2650), except for the platinum compounds which were prepared in saline (Quality Biological, Gaithersburg, MD, cat. 114-055-101), at 800-fold the tested concentration and stored at -70 degrees C prior to their use. All drugs and investigational agents were tested over a range starting from a high concentration at or near the clinical Cmax and decreasing in half-log increments. If the clinical Cmax for an agent had not been determined, the highest concentration tested was 10 microM, except for SN-38, which was tested at a high concentration of 1 microM.
Cell Culture. All cells were maintained in an incubator at 37 degrees C and 5% CO2 with 95% humidity. The PDC lines were cultured according to standard operating procedures established by the NCI PDMR (https://pdmr.cancer.gov). Table 3 of the manuscript, lists the cell lines along with the number of the three cell types plated to form the mct-spheroids and media for tumor cell growth. After thawing, all PDC lines, except 997537-175-T-J1-PDC and 415267-285-R-J2-PDC, were cultured in Matrigel-coated flasks prepared with a working solution of 1X Ham's F-12 nutrient mix, without supplementation (Thermo Fisher Scientific, cat. 11765054), 100 U/mL penicillin-streptomycin (Thermo Fisher Scientific, cat. 15140122), and 2.5% Matrigel (Corning Inc., Corning, NY, cat. 354248) for the first three passages. The two PDC lines 997537-175-T-J1-PDC and 415267-285-R-J2-PDC were cultured on uncoated flasks. The 857933-349-R-J2-PDC line was cultured in 6C/Colon 1B media containing advanced DMEM/F-12 (Thermo Fisher Scientific, cat. 12634028), 10 mM HEPES (Thermo Fisher Scientific, cat. 15630080), 1X GlutaMAX supplement (Thermo Fisher Scientific, cat. 35050061), 0.1 mg/mL primocin (InvivoGen, San Diego, CA, cat. ant-pm-2), 10% defined fetal bovine serum, heat inactivated (HyClone Laboratories Inc., Logan, UT, cat. SH30070.03HI), 50% L-WRN conditioned media (ATCC, cat. CRL-3276), 1.25 mM N-Acetyl-L-cysteine (Sigma-Aldrich, cat. A9165), 10 mM nicotinamide (Sigma-Aldrich, cat. N0636), 1X B-27 supplement (Thermo Fisher Scientific, cat. 17504044), 1X N-2 supplement (Thermo Fisher Scientific, cat. […]
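Note: spheroids exposed to compounds for one week.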
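Throughout, for viability, T/C: 100% = vehicle DMSO treated spheroids.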

C#Cc1c(F)ccc2cc(O)cc(-c3ncc4c(N5CC6CCC(C5)N6)nc(OCC56CCCN5CC(F)C6)nc4c3F)c12 (centres undefined)
viability, T/C (compound 0.0316 µM): 109% and 110% and 105%
viability, T/C (compound 0.1 µM): 105% and 104% and 101%
viability, T/C (compound 0.316 µM): 99.2% and 115% and 96.7%
viability, T/C (compound 1 µM): 105% and 96.8% and 101%
viability, T/C (compound 3.16 µM): 107% and 113% and 97.8%
viability, T/C (compound 10 µM): 102% (2×) and 80.7%
IC50: > 10000 nM

C=CC(=O)N1CCN(c2nc(=O)n(-c3c(C)ccnc3C(C)C)c3nc(-c4c(O)cccc4F)c(F)cc23)C(C)C1 (centres undefined)
viability, T/C (compound 0.0316 µM): 100% and 109% and 106%
viability, T/C (compound 0.1 µM): 95.8% and 94.2% and 95.4%
viability, T/C (compound 0.316 µM): 117% and 96.4% and 105%
viability, T/C (compound 1 µM): 101% and 104% and 95.6%
viability, T/C (compound 3.16 µM): 96.5% and 93.2% and 101%
viability, T/C (compound 10 µM): 89% and 64% and 94.1%
IC50: > 10000 nM

C=CCn1c(=O)c2cnc(Nc3ccc(N4CCN(C)CC4)cc3)nc2n1-c1cccc(C(C)(C)O)n1
viability, T/C (compound 0.00316 µM): 109% and 100% and 106%
viability, T/C (compound 0.01 µM): 115% and 89.1% and 99%
viability, T/C (compound 0.0316 µM): 105% and 97.8% and 107%
viability, T/C (compound 0.1 µM): 103% and 90.1% and 87.8%
viability, T/C (compound 0.316 µM): 103% and 74.6% and 85.4%
viability, T/C (compound 1 µM): 64.8% and 36% and 39%
IC50: > 1000 nM and 657 nM and 753 nM

CC(=O)O[C@H]1C(=O)[C@@]2(C)[C@H]([C@H](OC(=O)c3ccccc3)[C@]3(O)C[C@H](OC(=O)[C@H](O)[C@@H](NC(=O)c4ccccc4)c4ccccc4)C(C)=C1C3(C)C)[C@]1(OC(C)=O)CO[C@@H]1C[C@@H]2O
viability, T/C (compound 0.00949 µM): 22% and 35.2% and 37.8%
viability, T/C (compound 0.03 µM): 13.4% and 15.2% and 19.2%
viability, T/C (compound 0.0949 µM): 12.7% and 15.9% and 17.6%
viability, T/C (compound 0.3 µM): 11.9% and 12.5% and 14.8%
viability, T/C (compound 0.949 µM): 14.2% and 12.4% and 14.5%
viability, T/C (compound 3 µM): 13.1% and 16.4% (2×)
IC50: < 9.49 nM

CC(C)n1c(=O)n(C)c2cnc3cc(F)c(-c4ccc(OCCCN5CCCCC5)nc4)cc3c21
viability, T/C (compound 0.0316 µM): 104% and 96.1% and 15.7%
viability, T/C (compound 0.1 µM): 97.3% and 81.5% and 19.8%
viability, T/C (compound 0.316 µM): 111% and 83.6% and 12.2%
viability, T/C (compound 1 µM): 99.2% and 101% and 14.6%
viability, T/C (compound 3.16 µM): 101% and 85.8% and 17.6%
viability, T/C (compound 10 µM): 91% and 102% and 18.9%

CC1COCCN1c1cc(-c2ccnn2C)c2ccnc(-c3ccn[nH]3)c2n1 (centres undefined)
viability, T/C (compound 0.0316 µM): 91.4% and 85.5% and 69.4%
viability, T/C (compound 0.1 µM): 60.5% and 56.2% and 22.1%
viability, T/C (compound 1 µM): 24.4% and 21.4% and 10.8%
viability, T/C (compound 3.16 µM): 19.7% and 6.39% and 9.44%
viability, T/C (compound 10 µM): 18.5% and 17.1% and 9.19%
IC50: 164 nM and 124 nM and 50.6 nM

CC1COCCN1c1cc(C2(O)CC3CCC(C2)O3)c2cnn(-c3ccn[nH]3)c2n1 (centres undefined)
viability, T/C (compound 0.0316 µM): 81.7% and 83.6% and 51%
viability, T/C (compound 0.1 µM): 51.1% and 44.5% and 17.5%
viability, T/C (compound 0.316 µM): 25.6% and 22.2% and 9.65%
viability, T/C (compound 1 µM): 20.1% and 15.7% and 9.53%
viability, T/C (compound 3.16 µM): 17.1% and 14.3% and 7.61%
viability, T/C (compound 10 µM): 17.9% and 14.2% and 4.79%
IC50: 105 nM and 85.1 nM and 32.4 nM

CC1COCCN1c1cc(C2(S(C)(=N)=O)CC2)nc(-c2ccnc3[nH]ccc23)n1 (centres undefined)
viability, T/C (compound 0.0316 µM): 109% and 103% and 113%
viability, T/C (compound 0.1 µM): 97.4% and 99.3% and 104%
viability, T/C (compound 0.316 µM): 92% and 80.2% and 107%
viability, T/C (compound 1 µM): 86.7% and 51.1% and 86.6%
viability, T/C (compound 3.16 µM): 60.8% and 28.3% and 55.8%
viability, T/C (compound 10 µM): 21.6% and 9.59% and 22.4%
IC50: 4390 nM and 1130 nM and 3830 nM

CCCS(=O)(=O)Nc1ccc(F)c(C(=O)c2c[nH]c3ncc(-c4ccc(Cl)cc4)cc23)c1F
viability, T/C (compound 0.0316 µM): 109% and 98.3% and 104%
viability, T/C (compound 0.1 µM): 98% (2×) and 103%
viability, T/C (compound 0.316 µM): 90.9% and 101% and 108%
viability, T/C (compound 1 µM): 97.4% and 115% and 111%
viability, T/C (compound 3.16 µM): 71.8% and 98.3% and 112%
viability, T/C (compound 10 µM): 4.28% and 6.33% and 14.5%
IC50: 4610 nM and 5800 nM and 6450 nM

CC[C@@]1(O)C(=O)OCc2c1cc1n(c2=O)Cc2cc3c(CN(C)C)c(O)ccc3nc2-1
viability, T/C (compound 0.000316 µM): 104% (2×) and 105%
viability, T/C (compound 0.001 µM): 111% and 90.9% and 101%
viability, T/C (compound 0.00316 µM): 105% and 100% and 109%
viability, T/C (compound 0.01 µM): 98.2% and 82.6% and 99.5%
viability, T/C (compound 0.0316 µM): 46.4% and 25.9% and 36.8%
viability, T/C (compound 0.1 µM): 18% and 13.8% and 15%
IC50: 29.2 nM and 19.4 nM and 24.8 nM

CCc1c2c(nc3ccc(O)cc13)-c1cc3c(c(=O)n1C2)COC(=O)[C@]3(O)CC
viability, T/C (compound 0.00316 µM): 29.6% and 21.7% and 23.7%
viability, T/C (compound 0.01 µM): 13.3% and 10.5% and 14.2%
viability, T/C (compound 0.0316 µM): 5.51% and 5.68% and 5.45%
viability, T/C (compound 0.1 µM): 3.41% and 4.83% and 3.66%
viability, T/C (compound 0.316 µM): 1.89% and 3.99%
viability, T/C (compound 1 µM): 1.68% and 1.7% and 1.87%
IC50: < 3.16 nM

CCc1cc2c(N3CCc4c(cc(Cn5ccnc5)cc4-c4cn(C)nc4C(F)(F)F)C3=O)cc(C)nc2c(OC)n1
viability, T/C (compound 0.0316 µM): 108% and 84.9% and 95.3%
viability, T/C (compound 0.1 µM): 104% and 93.7% and 115%
viability, T/C (compound 0.316 µM): 100% and 83.8% and 86.7%
viability, T/C (compound 1 µM): 85.4% and 79.7% and 96.4%
viability, T/C (compound 3.16 µM): 76.5% and 55.1% and 70.1%
viability, T/C (compound 10 µM): 56.7% and 37.7% and 41.4%
IC50: > 10000 nM and 4460 nM and 7110 nM

CCc1cc2c(N3CCc4c(cc(Cn5ccnc5)cc4-c4cn(C)nc4C(F)(F)F)C3=O)ccnc2c(OC)n1
viability, T/C (compound 0.0316 µM): 108% and 98.5% and 105%
viability, T/C (compound 0.1 µM): 109% (2×) and 102%
viability, T/C (compound 0.316 µM): 98% and 85.5% and 106%
viability, T/C (compound 1 µM): 100% and 93.7% and 73.7%
viability, T/C (compound 3.16 µM): 92.4% and 69% and 64.4%
viability, T/C (compound 10 µM): 63.6% and 50.2% and 39.2%
IC50: > 10000 nM and 5580 nM
